From patent publication US8134015B2, “Compound inhibiting in vivo phosphorous transport and medicine containing the same” (Kyowa Hakko Kirin Co., Ltd., priority 2003, dated 2012)
pIC50: −log10 of the molar value.

Target: T1, rat NaPi-2b (Rattus norvegicus, UniProt Q9JJ09)
T1 construct: expressed in transfected cells; host or cells: Xenopus oocytes injected with cRNA
T1 sequence (Q9JJ09 1-695): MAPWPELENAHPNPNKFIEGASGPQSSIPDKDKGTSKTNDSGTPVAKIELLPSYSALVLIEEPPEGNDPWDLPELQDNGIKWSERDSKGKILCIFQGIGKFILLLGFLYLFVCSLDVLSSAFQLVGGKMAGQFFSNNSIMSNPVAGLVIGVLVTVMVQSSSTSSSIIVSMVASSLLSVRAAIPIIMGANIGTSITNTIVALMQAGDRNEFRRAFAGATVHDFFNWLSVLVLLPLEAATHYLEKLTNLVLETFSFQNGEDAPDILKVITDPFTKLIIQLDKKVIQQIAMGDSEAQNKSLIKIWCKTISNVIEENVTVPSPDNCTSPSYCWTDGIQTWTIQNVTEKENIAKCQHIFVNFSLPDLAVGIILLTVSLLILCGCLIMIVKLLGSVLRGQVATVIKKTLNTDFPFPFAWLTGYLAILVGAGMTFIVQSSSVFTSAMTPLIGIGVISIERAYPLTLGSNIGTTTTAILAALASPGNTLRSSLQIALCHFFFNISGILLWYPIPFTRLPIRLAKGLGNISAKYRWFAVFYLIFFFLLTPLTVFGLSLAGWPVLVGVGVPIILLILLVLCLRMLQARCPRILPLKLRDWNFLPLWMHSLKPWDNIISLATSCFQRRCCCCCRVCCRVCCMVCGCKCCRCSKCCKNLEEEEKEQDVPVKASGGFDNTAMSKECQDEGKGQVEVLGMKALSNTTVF
Experiment: Sodium-dependent phosphate uptake of Xenopus oocytes which expressed NaPi-2b (32P)
Format: cell-based
Details: Xenopus oocytes expressing rat NaPi-2b, 32P radioactive phosphorus; read-out: IC50 (phosphate uptake inhibitory activity)
Outline: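 Percent inhibition at 300 μM and 100 μM comes from the same inhibition curve of 32P uptake. Assay used oocytes expressing rat NaPi-2b after 2 days of culture.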

Structure (SMILES) | pIC50
C/C(=N\NC(=O)c1cc(Br)ccc1NC(=O)c1cccnc1)c1cccc(C)c1 [Compound 215, N-[4-Bromo-2-(1-m-toluyl-ethylidene-hydrazinocarbonyl)-phenyl]-nicotinamide] | > 5.52
C/C(=N\NC(=O)c1cc(Br)ccc1NC(=O)c1cccnc1)c1ccc(C)cc1 [Compound 216, N-[4-Bromo-2-(1-p-toluyl-ethylidene-hydrazinocarbonyl)-phenyl]-nicotinamide] | 4.66
C/C(=N\NC(=O)c1cc(Cl)ccc1NC(=O)c1cccnc1)c1ccc(C)cc1 [Compound 217, N-[4-Chloro-2-(1-p-toluyl-ethylidene-hydrazinocarbonyl)-phenyl]-nicotinamide] | 4.95
Cc1cc(/C=N/NC(=O)c2ccccc2NC(=O)c2cccnc2)oc1C [Compound 218, N-[2-(4,5-Dimethyl-furan-2-ylmethylene-hydrazinocarbonyl)-phenyl]-nicotinamide] | 5.39
Cc1cc(/C=N/NC(=O)c2ccccc2NC(=O)c2ccncc2)oc1C [Compound 219, N-[2-(4,5-Dimethyl-furan-2-ylmethylene-hydrazinocarbonyl)-phenyl]-isonicotinamide] | 5.04
Cc1cc(/C=N/NC(=O)c2cc(Br)ccc2NC(=O)c2cccnc2)oc1C [Compound 220, N-[4-Bromo-2-(4,5-dimethyl-furan-2-ylmethylene-hydrazinocarbonyl)-phenyl]-nicotinamide] | 5.03
Cc1cc(/C=N/NC(=O)c2cc(Br)ccc2NC(=O)c2ccncc2)oc1C [Compound 221, N-[4-Bromo-2-(4,5-dimethyl-furan-2-ylmethylene-hydrazinocarbonyl)-phenyl]-isonicotinamide] | 5.02
Cc1cc(/C=N/NC(=O)c2cc(Cl)ccc2NC(=O)c2cccnc2)oc1C [Compound 222, N-[4-Chloro-2-(4,5-dimethyl-furan-2-ylmethylene-hydrazinocarbonyl)-phenyl]-nicotinamide] | 5.05
Cc1cc(/C=N/NC(=O)c2cc(Cl)ccc2NC(=O)c2ccncc2)oc1C [Compound 223, N-[4-Chloro-2-(4,5-dimethyl-furan-2-ylmethylene-hydrazinocarbonyl)-phenyl]-isonicotinamide] | 4.95
O=C(Nc1ccccc1C(=O)N/N=C/c1ccccc1)c1ccccc1 [Compound 224, N-[2-(Benzylidene-hydrazinocarbonyl)-phenyl]-benzamide] | 4.70
O=C(Nc1ccccc1C(=O)N/N=C/c1ccccc1F)c1ccccc1 [Compound 225, N-[2-(2-Fluoro-benzylidene-hydrazinocarbonyl)-phenyl]-benzamide] | 4.21
O=C(Nc1ccccc1C(=O)N/N=C/c1cccc(F)c1)c1ccccc1 [Compound 226, N-[2-(3-Fluoro-benzylidene-hydrazinocarbonyl)-phenyl]-benzamide] | 5.77
COc1ccc(C(=O)Nc2cc(OC)c(OC)cc2C(=O)N/N=C/c2ccccc2)cc1OC [Compound 227, N-[2-(Benzylidene-hydrazinocarbonyl)-4,5-dimethoxy-phenyl]-3,4-dimethoxy-benzamide] | 5.13
O=C(Nc1ccccc1C(=O)N/N=C/c1ccccc1Br)c1ccccc1 [Compound 228, N-[2-(2-Bromo-benzylidene-hydrazinocarbonyl)-phenyl]-benzamide] | 4.65
Cc1ccccc1/C=N/NC(=O)c1ccccc1NC(=O)c1ccccc1 [Compound 229, N-[2-(2-Methyl-benzylidene-hydrazinocarbonyl)-phenyl]-benzamide] | 5.20

Same assay, conditions: phosphate uptake, oocytes expressing rat NaPi-2b; 300 μM, determined from inhibition curve

Structure (SMILES) | inhibition at 300 µM
COc1ccc(C(=O)Nc2cc(OC)c(OC)cc2C(=O)N/N=C/c2ccccc2C)cc1OC [Compound 230, N-[4,5-Dimethoxy-2-(2-methyl-benzylidene-hydrazinocarbonyl)-phenyl]-3,4-dimethoxy-benzamide] | 50.4%
COc1ccc(C(=O)Nc2ccccc2C(=O)N/N=C/c2ccccc2Cl)cc1OC [Compound 231, N-[2-(2-Chloro-benzylidene-hydrazinocarbonyl)-phenyl]-3,4-dimethoxy-benzamide] | 32.8%
COc1ccc2cc(/C=N/NC(=O)c3ccccc3NC(=O)c3ccc(OC)c(OC)c3)ccc2c1 [Compound 232, 3,4-Dimethoxy-N-[2-(6-methoxy-naphthalen-2-ylmethylene-hydrazinocarbonyl)-phenyl]-benzamide] | 44.9%
COc1ccc(C(=O)Nc2ccccc2C(=O)N/N=C/c2ccc(-c3ccccc3)cc2)cc1OC [Compound 233, N-[2-(Biphenyl-4-ylmethylene-hydrazinocarbonyl)-phenyl]-3,4-dimethoxy-benzamide] | 33.6%
COc1ccc(C(=O)Nc2ccccc2C(=O)N/N=C/c2ccc(Br)cc2)cc1OC [Compound 234, N-[2-(4-Bromo-benzylidene-hydrazinocarbonyl)-phenyl]-3,4-dimethoxy-benzamide] | 37.9%
O=C(Nc1ccccc1C(=O)N/N=C/C=C/c1ccccc1)c1ccccc1 [Compound 235, N-[2-(3-Phenyl-allylidene-hydrazinocarbonyl)-phenyl]-benzamide] | 47.9%
O=C(Nc1ccccc1C(=O)N/N=C/c1ccccc1F)c1ccccc1F [Compound 236, 2-Fluoro-N-[2-(2-fluoro-benzylidene-hydrazinocarbonyl)-phenyl]-benzamide] | 49.4%
O=C(Nc1ccccc1C(=O)N/N=C/c1cccc(F)c1)c1ccccc1F [Compound 237, 2-Fluoro-N-[2-(3-fluoro-benzylidene-hydrazinocarbonyl)-phenyl]-benzamide] | 33.1%
Cc1cccc(/C=N/NC(=O)c2ccccc2NC(=O)c2ccccc2F)c1 [Compound 238, 2-Fluoro-N-[2-(3-methyl-benzylidene-hydrazinocarbonyl)-phenyl]-benzamide] | 30.6%
CC(C)(C)c1cccc(/C=N/NC(=O)c2ccccc2NC(=O)c2ccccc2F)c1O [Compound 239, N-[2-(3-Tert-butyl-2-hydroxy-benzylidene-hydrazinocarbonyl)-phenyl]-2-fluoro-benzamide] | 59.1%
COc1ccc(C(=O)Nc2ccccc2C(=O)N/N=C/c2ccc([N+](=O)[O-])cc2)cc1OC [Compound 240, 3,4-Dimethoxy-N-[2-(4-nitro-benzylidene-hydrazinocarbonyl)-phenyl]-benzamide] | 37.9%
CCN(CC)c1ccc(/C=N/NC(=O)c2ccccc2NC(=O)c2ccc(OC)c(OC)c2)cc1 [Compound 241, N-[2-(4-Diethylamino-benzylidene-hydrazinocarbonyl)-phenyl]-3,4-dimethoxy-benzamide] | 46.9%
COc1cc(OC)cc(C(=O)Nc2ccc(O)cc2C(=O)N/N=C/c2cccc(F)c2)c1 [Compound 242, N-[2-(3-Fluoro-benzylidene-hydrazinocarbonyl)-4-hydroxy-phenyl]-3,5-dimethoxy-benzamide] | 37.6%
COc1ccc(C(=O)Nc2ccc(Br)cc2C(=O)N/N=C/c2ccccn2)cc1OC [Compound 243, N-[4-Bromo-2-(pyridin-2-ylmethylene-hydrazinocarbonyl)-phenyl]-3,4-dimethoxy-benzamide] | 50.2%
COc1ccc(C(=O)Nc2ccc(Cl)cc2C(=O)N/N=C/c2ccccn2)cc1OC [Compound 244, N-[4-Chloro-2-(pyridin-2-ylmethylene-hydrazinocarbonyl)-phenyl]-3,4-dimethoxy-benzamide] | 30.7%
